Measurements published in patent US10093627B2, “Tetrahydroquinoline derivatives and their use as Epac inhibitors” (Institut National de la Sante et de la Recherche Medicale …, priority 2012, dated 2018).

Test system: Iso-induced ANF-Luc transcriptional activation
Assay: ANF-Luc transcriptional activation (Firefly luciferase assay) in rat neonatal cardiomyocytes
Type: cell-based
Settings: Iso 10 μM, 8 h; FIG. 4A
Experimental: ANF and NFAT promoters were fused to the Firefly luciferase gene (ANF-Luc) (NFAT-Luc) to detect ANF and NFAT by Firefly Luciferase assay (see Materiel and Methods).
Rat neonatal cardiomyocytes were cotransfected with ANF-Luc and Epac1 or empty vector pcDNA3 as control. One day after transfection, cells were pretreated or not with CE3F4 (20 μM) for 30 min and stimulated or not with Iso (10 μM) for 8 h. Cells were then assayed for Luciferase activity. B) Iso-induced NFAT-Luc Transcriptional Activation is Blocked by CE3F4: Neonatal cardiomyocytes were transfected with NFAT-Luc. One day later cells were pretreated or not with CE3F4 (20 μM) for 30 min and stimulated or not with Iso (10 μM) for 8 h. The day after, cells were assayed for Luciferase activity.
Results were normalized to control for each experiment, and were expressed as means±S.E.M of at 4 (FIG. 4A) or 5 (FIG. 4B) independent experiments performed in triplicates.
The rat ANF promoter fused to the Firefly luciferase reporter gene (ANF-Luc) by Dr K. Knowlton, Epac and Rap1 plasmid construct (Epac1^WT) by Drs J. L. Bos and J. de Gunzburg, respectively. The Firefly luciferase reporter plasmid driven by four NFAT consensus binding sites (NFAT-Luc) was purchased from Stratagene. […]
Cells were lysed, and luminescence was detected using the Luciferase Assay System (Promega) according to the manufacturer's instructions with Tecan Infinite.

CC(C)NCC(O)c1ccc(O)c(O)c1 (stereo not shown) [Iso, Isoprenaline, reference compound]
Effect of agonist on ANF (ANF-Luc): increased ANF
